The source of these data is patent US20230149378A1, “Aminothiolester compounds or pharmaceutically acceptable salts thereof, for use for the treatment of cancer” (ADVANCED BIODESIGN, priority 2015, published 2023).

In general, IC50 refers to the concentration that inhibits the measured activity by half. A high value points to lower potency.

For data set [1], the system named is HL-60 cells. Put plainly: Measurement of GSH level (GSH-Glo). It is filed as cell-based, human. Conditions: HL-60 cells treated with 2.5 mM NAC; FIG. 6(B). The procedure: (§1) Cells were seeded in 96-well black walled plate (5×10^4 cells/mL) and incubated overnight for attachment. The cells were treated either with vehicle, DMSO, BCNU 100 μM, S-methyl 4-(dimethylamino)-4-methylpent-2-ynethioate 20 μM, for 24 hours. The total glutathione was measured according to the instructions of the kit (GSH-Glo™, Promega) and results were obtained for 25 000 cells.

The conditions of data set [2]: Aruoma et al 1989; cited from earlier work.
For data set [3] the following is noted: Aruoma et al 1989; cited from earlier work. The source holds these as a separate data set.
Data set [4] relates to BEAS-2B (Human bronchial epithelial cells). The data set is described as follows: Alamar blue growth inhibition, normal human primary cells. It is filed as cell-based. Conditions: 48 hours. Here is the method: (§2) Cells were seeded into 96-well cell culture plates at concentrations required to ensure approximately 80% confluence in control (untreated cells) at the end of experiment (0.5×10^4-5×10^4 cell/well). The sensitivity towards S-methyl 4-(dimethylamino)-4-methylpent-2-ynethioate was determined using different concentrations of the drug (from 0.01 to 100 μM). After 48 hours, the growth-inhibitory effect of the drug was analyzed using Alamar blue, according to manufactures instructions. The Alamar Blue assay was used based on earlier observations: similar results were found with Alamar blue, tetrazolium reduction (XTT assay). To ensure good data quality and to minimize impact of pipetting errors, each particular drug concentration was assessed based on mean fluorescence intensity from 8 separate wells. The drug response was quantified by the half maximal inhibitory concentration (IC50) for each particular cell line, and determined by non-linear regression analysis of log-dose/response curves. Cut-off value for resistance to S-methyl 4-(dimethylamino)-4-methylpent-2-ynethioate was determined statistically (>2 S.D. above the IC50 geometric mean). The in-vitro threshold value for hypersensitivity to the drug has been defined as <IC50 geometric mean.
(§3) In addition, to control the selectivity of the S-methyl 4-(dimethylamino)-4-methylpent-2-ynethioate toward cancer cells, the compound according to the invention was also tested on normal cells by using the same method as the one described above.

Data set [5] relates to HPF (Human Pulmonary fibroblasts). The data set is described as above. The note with it: Pulmonary fibroblast, 48 hours. It is filed as cell-based. Here is the method:
as §2, §3

The subject of data set [6] is NHEM (Normal Human epidermal melanocytes). Described as above. It is filed as cell-based. Conditions: Melanocyte, 48 hours. Here is the method:
as §2, §3

Data set [7] deals with hMCSs-BM (Human mesenchymal stem cells from bone marrow). The description is as above. It is filed as cell-based. The note with it: 48 hours. Here is the method:
as §2, §3

The subject of data set [8] is huvec (Human umbilical vein endothelial cells). The data set is described as above. It is filed as cell-based. The note with it: 48 hours. The procedure: as §2, §3
Data set [9] relates to DU145 (prostatic cancer line). Put plainly: Alamar blue growth inhibition, cell line DU145. It is filed as cell-based. The note with it: Homo sapiens, DU-145. The procedure: as §2
(§4) In addition, other compounds according to the invention were tested by following the above mentioned material and method on the cell line DU145 (prostatic cancer line) and the cell line HL60 (leukemia) mentioned in Table 2.
In general terms: The colour change of resazurin is a common sign of viable cells or microbes.

In data set [10] the test system is HL-60 (leukemia). The data set is described as follows: Alamar blue growth inhibition, cell line HL60. It is filed as cell-based. The note with it: Homo sapiens. Here is the method:
as §2, §4

Data set [11] deals with normal cells. Put plainly: Selectivity control on normal cells. It is filed as cell-based, human. Conditions: same method as cancer cells. Here is the method: as §2, with “mean. […]” for “mean.”
Data set [12] deals with cancer cell lines which overproduce H2O2. Put plainly: Viability assay (resazurin, XTT or MTT) on various cancer cell lines. It is filed as cell-based, human. The note with it: FIG. 1. Here is the method:
A panel of 52 human tumor cells representing 10 tissue types has been selected to cover a broad set of different oncogenes and according to their response to different standard chemotherapeutics. […]
as §2, with “The Alamar Blue assay was used based on earlier observations: similar results were found with Alamar blue, tetrazolium reduction (XTT assay).” left out, “The in-vitro threshold value for hypersensitivity to the drug has been defined as <IC50 geometric mean.” left out

Data set [13] concerns HL60 cancers cells. Put plainly: Measurement of H2O2 production (Total ROS/superoxide detection kit). It is filed as cell-based, human. The note with it: FIG. 6(A). Here is the method: Intracellular H2O2 production in live cells was measured using Total ROS/superoxide detection kit (Enzo life science), following the manufacturer's instructions. The assay uses specific H2O2/RNS probes that upon reaction with H2O2 and RNS species were oxidized rapidly to highly fluorescent compounds. Fluorescence intensity is proportional to the total H2O2/RNS levels within the sample. […] The day before the analysis, cells were seeded in 96-well black/clear bottom plates at a density of 2×10^4 in culture media according to cell suppliers instructions, supplemented with FBS (10% v/v), 10 units of penicillin/mi and […] of streptomycin. Cells were kept at 37° C. in a humid atmosphere of 95% air: 5% CO2 overnight. On the day of the analysis, cells media was replaced by 100 μL of phenol free-media supplemented as above, without any treatment, with S-methyl 4-(dimethylamino)-4-methylpent-2-ynethioate for 6 hours, vehicle HEPES for 6 hours, or with NAC for 20 min. […] Several wells were left without cells for the background fluorescence control measurements. Plates were read using fluorescence microplate reader (ex=560 nm, Em=600). Data were expressed as the change in arbitrary fluorescence units produced from equal amounts of cells and normalized to total protein input.

Data set [14] relates to HL-60 cells. Put plainly: Viability of HL-60 cells with NAC or GSH-MEE (induction of resistance). It is filed as cell-based. The procedure:
To revert S-methyl 4-(dimethylamino)-4-methylpent-2-ynethioate-induced cell death, drug sensitive cells HL-60 were exposed to S-methyl 4-(dimethylamino)-4-methylpent-2-ynethioate (10 μM) in the presence of the reduced glutathione analog Glutathione Monoethyl Ester (GSH-MEE) at concentrations 10 mM or S-methyl 4-(dimethylamino)-4-methylpent ynethioate in combination. HL-60 were seeded, into 96-wells plate, at a concentration of 5×10^4 cells/well in 100 μL of complemented medium supplemented with Glutathione Monoethyl Ester (GSH-MEE) 10 mM. After 90 minutes incubation, cells were washed with PBS and cells were incubated using different concentrations of the drug (from 0.01 to 100 μM). After 24 h and 48 h cell viability was measure using the Rezasurin assay as described above.

Data set [15] relates to Colo357 cells. The data set is described as follows: Viability of Colo357 cells treated with BCNU. It is filed as cell-based. Conditions: Colo357 cells treated with 100 μM carmustine (BCNU); FIG. 8(B).
Data set [16] concerns sensitive cells (HL-60, NT2/D1). The data set is described as follows: MDA-adducts ELISA, sensitive cells. It is filed as cell-based, human. Conditions: 5 or 10 μmol·L^−1 during 24 hours, FIG. 10. The procedure: (§5) The formation of HNE-adducts and MDA-adducts was quantified with the Oxiselect HNE Adduct Elisa kit (Cell Biolabs, San Diego, Calif.) and the OxiSelect MDA Adduct ELISA Kit (Cell Biolabs), respectively. Briefly, after a treatment with S-methyl 4-(dimethylamino)-4-methylpent-2-ynethioate during 24 hours, cells were lysed by sonication in reducing SDS Sample Buffer. Homogenates were diluted to 10 μg protein/mL and adsorbed in 96-well protein binding plates by incubation at 37° C. for at least 2 hours. Wells were washed twice with PBS and incubated for an additional 2 hours at room temperature on an orbital shaker. Following three washes in PBS, 100 μL of anti-HNE antibody or anti-MDA antibody were added to the wells and incubated for 1 hour at room temperature. Subsequently, goat anti-rabbit secondary antibody-HRP conjugate (diluted 1/1000 with the assay diluent) was added and incubation continued for 1 hour. Wells were washed five times in PBS and HRP-substrate was added. Reaction was stopped with an acidic solution, and absorbance read on a microplate reader at 450 nm. The level of HNE-adducts and of MDA-adducts was determined by comparison with a standard curve prepared from HNE-BSA and MDA-BSA standards supplied by the manufacturer. […]

The subject of data set [17] is resistant cells (MSC). Put plainly: MDA-adducts ELISA, resistant cells. Conditions: 5 or 10 μmol·L^−1 during 24 hours, FIG. 10. It is filed as cell-based, human. Here is the method: as §5
Data set [18] concerns sensitive cells (HL-60, NT2/D1). Put plainly: HNE-adducts ELISA, sensitive cells. It is filed as cell-based, human. The note with it: 5 or 10 μmol·L^−1 during 24 hours, FIG. 10. The procedure: as §5
A general note: In an ELISA, binding on a coated surface is turned into a signal by an enzyme label.

The test system of data set [19] is resistant cells (MSC). The data set is described as follows: HNE-adducts ELISA, resistant cells. It is filed as cell-based, human. Conditions: 5 or 10 μmol·L^−1 during 24 hours, FIG. 10. The procedure: as §5
In data set [20] the test system is Colo357 cells. Put plainly: Measurement of GSH level (GSH-Glo). It is filed as cell-based. The note with it: 100 μM, FIG. 8(A). Here is the method:
as §1

Turning to `CC(=O)N[C@@H](CS)C(=O)O` [NAC, N-acetyl-L-cysteine], the “amount of GSH level” value in data set [1] is given as “significantly increased”. Further, the “rate constant, scavenging of hydroxy radicals” value in data set [2] is listed as 1.36×10^10 M^−1,s^−1. Also, the “rate constant, reaction with hydrogen peroxide” value in data set [3] is on record as 0.38 M^−1, s^−1.
With `CSC(=O)C#CC(C)(C)N(C)C` [S-methyl 4-(dimethylamino)-4-methylpent-2-ynethioate], the IC50 was above 50 µM in data set [4]; above 100 µM in [5]; above 100 µM in data set [6]; above 50 µM in data set [7]; above 50 µM in data set [8]; 7.2 µM in data set [9]. This compound returned a half-maximal inhibitory concentration (IC50) in [10] of 7.6 µM. Besides, in data set [11], the “effect on normal cells” value was “no effect”. Also, in data set [12], the “efficacy in cancer cell lines (viability assay)” value is “effective”. Besides, the “H2O2 activity level in Relative Fluorescence Unit (RFU)” value is listed as “increased” in data set [13] (HL60, 5 μM for 24 hours) and “no H2O2 increase” in data set [13] (HL60, treatment in addition with 2.5 mM N-acetyl-Cysteine (NAC)). Moreover, the “viability of HL-60 cells” value in [14] (5, 10 μmol·L-1 and 2.5 mM NAC, FIG. 6(C)) was “inhibition of efficacy”. In addition, the “cytotoxic effect on HL-60 cells” value in data set [14] (after pre-treatment of 10 mM GSH-MEE, FIG. 7) is given as “no more effective”. In data set [15], this compound displayed a decrease of viability of 50%. The MDA-adducts level entry in data set [16] is “above 100 ng per μg of total protein”; in data set [17], < 100 ng per μg of total protein. Further, the HNE-adducts level is > 1 μg per μg of total protein in data set [18] and < 1 μg per μg of total protein in data set [19].
For `CSC(=O)C#CC(C)(C)N(C)Cc1ccccc1` [S-methyl 4-[benzyl(methyl)amino]-4-methylpent-2-ynethioate], the values for the IC50 in data set [9] and in data set [10] were 1.4 µM and 10.4 µM, respectively.
Consider `CSC(=O)C#CC(C)(C)N1CCOCC1` [S-methyl 4-methyl-4-(morpholin-4-yl)pent-2-ynethioate], for which the 50% inhibitory concentration (IC50) in data set [9] stood at 9.3 µM; in data set [10], 30 µM.
Turning to `CSC(=O)C#CC(C)(C)N1CCCCC1` [S-methyl 4-methyl-4-(piperidin-1-yl)pent-2-ynethioate], the concentration for half-maximal inhibition (IC50) in [9] is 22 µM; in data set [10] it was 7.21 µM.
The matching figures for `CSC(=O)C#CC(C)(C)N(C)c1ccccc1` [S-methyl 4-methyl-4-[methyl(phenyl)amino]pent-2-ynethioate]: 12.5 µM and 24.8 µM.
For the compound `O=NN(CCCl)C(=O)NCCCl` [carmustine], the “decrease of the GSH level” value in data set [20] came to 50%.
